The values below come from ChEMBL document CHEMBL1201862, “PubChem BioAssay data set” (2004).

Test systems include ACHN; CCRF-CEM; COLO 205; HCT-116; IGROV-1; K562; KM12; LOX IMVI; NCI-H23; OVCAR-8; RXF 393; SF-295; SF-539; SNB-19; SW-620; TK-10; NCI-H226.
What all share (assay): NCI tumour cell line growth inhibition, 48 h

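Cells were grown in 96-well plates and exposed to each compound for 48 hours at five concentrations; endpoints were interpolated linearly between bracketing concentrations, or set to the highest concentration if not reached. GI50 = concentration required for 50% inhibition of growth.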 Activity calls are given as the source filed them. Cut-off read from the data, not from the text of the source: active = GI50 up to about 1.1 µM and inactive = higher.

Take `Sc1ncnc2c1ncn2C1CCCO1` (stereo not given): the GI50 is > 100 µM (inactive) with ACHN; > 100 µM (inactive) in the assay with CCRF-CEM; > 100 µM (inactive) in the assay with COLO 205; 55.5 µM (inactive) with HCT-116; > 100 µM (inactive) in the assay with IGROV-1; 38.8 µM (inactive) in the assay with K562. Also, the GI50 is > 100 µM (inactive) in the assay with KM12; 37.6 µM (inactive) with LOX IMVI; > 100 µM (inactive) in the assay with NCI-H23; > 100 µM (inactive) in the assay on OVCAR-8; > 100 µM (inactive) in the assay with RXF 393; > 100 µM (inactive) with SF-295. Moreover, the GI50 in the assay with SF-539 is > 100 µM (inactive); in the assay with SNB-19 it was > 100 µM (inactive); with SW-620, > 100 µM (inactive); in the assay on TK-10 it was 89.5 µM (inactive).

As for `O=C1NC2C(O)CCCCC2C12CCCCC2` (stereo not given), the GI50 with ACHN, in the assay on COLO 205, in the assay on HCT-116, in the assay on IGROV-1, with K562 and in the assay with KM12 was > 100 µM (inactive) each time. Besides, the GI50 in the assay on LOX IMVI, with NCI-H23, with OVCAR-8, with RXF 393, in the assay on SF-295 and in the assay with SF-539 was > 100 µM (inactive) each time. Besides, the GI50 in the assay with SNB-19 and with SW-620 was > 100 µM (inactive) each time.

With `CN1C[C@@H]2CC(=O)CC[C@@H]2C[C@H]1C#N`, the GI50 with ACHN, with CCRF-CEM, in the assay on HCT-116, in the assay on IGROV-1, in the assay with K562 and with KM12 was > 100 µM (inactive) throughout. The GI50 in the assay on LOX IMVI, with NCI-H226, with OVCAR-8, with SF-295, with SNB-19 and in the assay with SW-620 was > 100 µM (inactive) each time.

For `COC(=O)/N=C(\NC(=O)OC)Nc1ccc(Oc2ccccc2)cc1NC=O`, the GI50 is 0.881 µM (active) in the assay with ACHN; 0.692 µM (active) with CCRF-CEM; 0.2 µM (active) with COLO 205; 0.49 µM (active) with HCT-116; 1.62 µM (inactive) in the assay on IGROV-1; 0.265 µM (active) with K562. Moreover, the GI50 in the assay on KM12 is 0.466 µM (active); in the assay on LOX IMVI, 1.97 µM (inactive); with NCI-H226 it was 0.977 µM (active); in the assay with NCI-H23, 0.824 µM (active); in the assay with OVCAR-8, 0.593 µM (active); in the assay with SF-295, 0.439 µM (active). Besides, the GI50 was 0.433 µM (active) in the assay on SF-539, > 100 µM (inactive) in the assay on SNB-19, 0.388 µM (active) in the assay on SW-620 and 9.57 µM (inactive) with TK-10.

As for `CC1(C)SCc2nc3ncccc3n21`, the GI50 with ACHN, in the assay with CCRF-CEM, with COLO 205, in the assay on IGROV-1, with K562 and with KM12 was > 100 µM (inactive) in each case. Moreover, the GI50 in the assay with LOX IMVI, with NCI-H226, with NCI-H23, in the assay with OVCAR-8, with RXF 393 and in the assay on SF-295 was > 100 µM (inactive) each time. Further, the GI50 in the assay on SF-539, in the assay with SW-620 and with TK-10 was > 100 µM (inactive) each time.

`Cc1ccc(C(=O)NC2CCCCC2)cc1/N=N/N(C)C`: the GI50 with ACHN, in the assay with HCT-116, with IGROV-1, in the assay on KM12, in the assay with LOX IMVI and in the assay with NCI-H23 was > 100 µM (inactive) throughout. Also, the GI50 with OVCAR-8, in the assay on SF-295, in the assay with SF-539, with SNB-19, in the assay on SW-620 and in the assay with TK-10 was > 100 µM (inactive) in each case.
